Laboratory results from patent US20250276955A1, “CORONAVIRUS MAIN PROTEASE INHIBITORS AND METHODS USING SAME” (Baylor College of Medicine, priority 2021, published 2025).

Tests used:
SARS-COV-2 M^pro-His6 = SARS-COV-2 M^pro-His6 (Severe acute respiratory syndrome coronavirus 2, UniProt P0DTD1); experiment: biochemical; format: biochemical; conditions: 25 nM enzyme, 15 μM fluorescent peptide, Morrison equation; Inactive = less than 50% inhibition at 25 μM compound; read-out: M^pro-His Ki
renin = molecular target: T1, renin (Homo sapiens, UniProt P00797); experiment: Renin assay; format: biochemical; conditions: read-out: estimated Kiapp, renin
T1 construct: purchased BPS Bioscience 80211
T1 sequence (P00797 67-406): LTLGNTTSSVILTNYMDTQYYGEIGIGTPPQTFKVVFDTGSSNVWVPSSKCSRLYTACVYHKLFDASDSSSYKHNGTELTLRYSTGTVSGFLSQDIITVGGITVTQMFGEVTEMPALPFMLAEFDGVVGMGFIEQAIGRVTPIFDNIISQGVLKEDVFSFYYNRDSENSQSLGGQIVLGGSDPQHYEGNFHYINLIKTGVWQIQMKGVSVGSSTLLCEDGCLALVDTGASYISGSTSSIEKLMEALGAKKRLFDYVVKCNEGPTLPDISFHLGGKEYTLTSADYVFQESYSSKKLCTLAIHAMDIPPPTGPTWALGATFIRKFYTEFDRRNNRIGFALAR
Protocol: A kit from BPS Bioscience (#80211) was used with adjustments to the manufacturer's protocol as follows: The reaction was run at RT in black 96 half-area plates in a total reaction volume of 50 uL containing 0.01% Tween-20. Instead of measuring endpoints at 30 min the increase in fluorescence (Ex 490 nm, Em 520 nm) per second (RFU/s) was obtained from linear progress curves over 10 min. Fractional activities were calculated from reactions with no inhibitors. Aliskiren was used as a positive control.

[1] = system: SARS-COV-2 (USA_WA1/2020 isolate) in VERO E6 cells; experiment: Real-Time Cell Analysis (RTCA) assay of SARS-COV-2 replication; format: cell-based; conditions: VERO E6 cells, 75 h
human thrombin = molecular target: T2, human thrombin (Homo sapiens, UniProt P00734); experiment: Thrombin fluorescence assay; format: biochemical; conditions: fluorescence assay
T2 construct: purchased Sigma-Aldrich MAK243

Structure (SMILES): COc1cc(-c2cccc3[nH]ncc23)cc(C=O)c1OCC(=O)N(C)C [CDD-1713, 2-(2-formyl-4-(1H-indazol-4-yl)-6-methoxyphenoxy)-N,N-dimethylacetamide]
- Ki (SARS-COV-2 M^pro-His6): 0.0448 ± 0.0029 µM
- Ki (renin): 53 µM
- IC50 ([1]; Severe acute respiratory syndrome coronavirus 2, Vero C1008, read-out: IC50, inhibition of SARS-COV-2 induced cell death (RTCA)): 5.19 µM
- prevention of SARS-COV-2 induced cell death (in words) [1]: reduced cell death in a dose-dependent manner
- Thrombin inhibition (human thrombin): None
- thrombin inhibition (in words) (human thrombin): No inhibition
